These are literature values, as cited in patent US4405354A, “Elimination of odors from waste material” (priority 1980, dated 1983).

Like-named read-outs stand apart in the source and are kept apart here.

As to `N` [aqueous ammonia], the Kb by setting is: (0 °C) 1.374 × 10^-5; (5 °C) 1.479 × 10^-5; (10 °C) 1.570 × 10^-5; (15 °C) 1.652 × 10^-5; (20 °C) 1.710 × 10^-5; (25 °C) 1.774 × 10^-5. Moreover, the Kb is 1.820 × 10^-5 (30 °C); 1.849 × 10^-5 (35 °C); 1.862 × 10^-5 (40 °C); 1.879 × 10^-5 (45 °C); 1.892 × 10^-5 (50 °C).
